Columns and labels:
ANP = test: Relative expression of ANP in heart right ventricle, hypoxia-induced pulmonary hypertension model (TaqMan RT-PCR); type: in vivo, guinea pig; conditions: hypoxia 28 days, Odanacatib infusion, compared to placebo group; FIG. 2
Description: (§1) To analyse the disease state of the animals and determine the efficacy of Odanacatib treatment, the expression of marker genes were performed. […] Due to the known correlation of increased ANP levels and disease stage in heart failure patients and animal models, the increased expression of […] seems to be correlated with pulmonary hypertension.
(§2) Guinea pig or dog tissues were pulverized by grinding with liquid nitrogen. Total RNA was extracted, DNase I digestion was performed to remove residual genomic DNA and the RNA were reverse transcribed using random hexomer primers. Quantitative TaqMan RT-PCR analysis was performed using the Applied Biosystems PRISM 7900 sequence detection system. […] Results were normalized to L32 (dog) or b-actin (guinea pig) controls, and relative expression was calculated according to the following formula: relative expression=2(20-(CT(probe)-CT(L32/b-actin))). […]
(§3) Male Dunkin Hartley guinea pigs weighing approximately 250 g were randomized to three different treatment groups (n=7-8 animals/group; control+placebo, hypoxia+placebo, hypoxia+Odanacatib). […] The heart was dissected, and the ratio of the right ventricle to left ventricle plus septum weight (RV/LV+S) was calculated as an index of right ventricular hypertrophy. The right ventricle was snap-frozen on dry ice for RNA extraction and quantitative real-time polymerase chain reaction. […]

CTSK = test: Relative expression of CTSK in heart right ventricle, hypoxia-induced pulmonary hypertension model (TaqMan RT-PCR); type: in vivo, guinea pig; conditions: hypoxia 28 days, Odanacatib infusion, compared to placebo group; FIG. 4
Description: as §1, §2, §3

LTBP2 = test: Relative expression of LTBP2 in heart right ventricle, hypoxia-induced pulmonary hypertension model (TaqMan RT-PCR); type: in vivo, guinea pig; conditions: hypoxia 28 days, Odanacatib infusion, compared to placebo group; FIG. 3
Description: as §1, §2
For relative quantitation of the mRNA distribution of LTBP2, total RNA from each sample was first reverse transcribed. […]
For relative quantitation of the distribution of LTBP2 mRNA the Applied Bioscience ABI 7900HT Sequence Detection system was used according to the manufacturer's specifications and protocols.
PCR reactions were set up to quantitate LTBP2 and the housekeeping gene b-actin. […]

[1] = system: hypoxia-induced pulmonary hypertension in the guinea pig; test: Hypoxia-induced pulmonary hypertension in the guinea pig: right ventricular hypertrophy (RV/LV+S); type: in vivo
Description: Chronic hypoxia is a literature described and accepted animal model for pulmonary hypertension and is described for different species (Am J Physiol Lung Cell Mol Physiol 297: L1013-L1032, 2009; J Pharmacol Sci 107, 8-14 (2008); Pharmacology & Therapeutics 92 (2001) 1-20). Acute hypoxia increases pulmonary arterial pressure through pulmonary arterial constriction. Chronic hypoxia causes more severe pulmonary hypertension through vascular architectural changes and an increase of hematocrit (Hct) in the blood. […]
The CTSK inhibitor Odanacatib was tested in a guinea pig model for pulmonary hypertension as described in the examples section. […] The heart was dissected, and the ratio of the right ventricle to left ventricle plus septum weight (RV/LV+S) was calculated as an index of right ventricular hypertrophy. The right ventricle was snap-frozen on dry ice for RNA extraction and quantitative real-time polymerase chain reaction. […]
as §3, with “hypertrophy.” for “hypertrophy. The right ventricle was snap-frozen on dry ice for RNA extraction and quantitative real-time polymerase chain reaction.”

CC(C)(F)C[C@H](N[C@@H](c1ccc(-c2ccc(S(C)(=O)=O)cc2)cc1)C(F)(F)F)C(=O)NC1(C#N)CC1 [Odanacatib]
expression of ANP in heart (right ventricle) under hypoxia (ANP): markedly decreased expression
expression of CTSK in heart (right ventricle) under hypoxia (CTSK): markedly decreased expression
expression of LTBP2 in heart (right ventricle) under hypoxia (LTBP2): markedly decreased expression
ratio of the right ventricle to left ventricle plus septum weight (RV/LV+S) ([1]; Mean±SEM, normobaric hypoxia (10% O2) 28 days, continuous infusion by osmotic minipump day 0-28, hypoxic placebo 0.37±0.01, normoxic control 0.28±0.01): 0.30±0.01
right ventricle weight ([1]; hypoxia-induced pulmonary hypertension animals, compared to placebo treated animals): reduction of right ventricle weight
